Reference: PubChem BioAssay (NCI)
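Exposure lasted 48 hours, with cells grown in 96-well plates and compounds tested at five concentrations. GI50 marks 50% less growth. At the TGI there is no net growth.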

Tests used:
Assay in all cases: inhibition of tumour cell growth, NCI panel, 48 h
SK-OV-3 ovarian = tested on: SK-OV-3 ovarian
HS 578T breast = tested on: HS 578T breast
IGROV1 ovarian = tested on: IGROV1 ovarian
NCI/ADR-RES ovarian = tested on: NCI/ADR-RES ovarian
MCF7 breast = tested on: MCF7 breast
SK-MEL-2 melanoma = tested on: SK-MEL-2 melanoma
HCT-15 colon = tested on: HCT-15 colon
HOP-62 NSCLC = tested on: HOP-62 NSCLC
K-562 leukemia = tested on: K-562 leukemia
SK-MEL-28 melanoma = tested on: SK-MEL-28 melanoma
CCRF-CEM leukemia = tested on: CCRF-CEM leukemia
MOLT-4 leukemia = tested on: MOLT-4 leukemia

Structure (SMILES)	TGI (SK-OV-3 ovarian) [µM]	TGI (HS 578T breast) [µM]	TGI (IGROV1 ovarian) [µM]	TGI (NCI/ADR-RES ovarian) [µM]	TGI (MCF7 breast) [µM]	TGI (SK-MEL-2 melanoma) [µM]	TGI (HCT-15 colon) [µM]	TGI (HOP-62 NSCLC) [µM]	TGI (K-562 leukemia) [µM]	TGI (SK-MEL-28 melanoma) [µM]	TGI (CCRF-CEM leukemia) [µM]	TGI (MOLT-4 leukemia) [µM]	GI50 (HS 578T breast) [nM]	GI50 (NCI/ADR-RES ovarian) [µM]	GI50 (MCF7 breast) [nM]
c1ccc([P+](Cc2ccccc2C[P+](c2ccccc2)(c2ccccc2)c2ccccc2)(c2ccccc2)c2ccccc2)cc1	> 100	> 100	> 100	> 100	> 100	> 100	> 100	> 100	> 100	> 100					
CCc1c(Cc2[nH]c(Cc3[nH]c(C=O)c(C)c3CC)c(CC)c2CC)[nH]c(C=O)c1C	> 100						> 100	> 100	> 100	> 100	> 100	> 100			
NCCN1C(=O)CN=C(c2ccc(Cl)cc2)c2cc(Cl)ccc21	47.6	35.8	27.1	32.8		31.8	34.7	31.8	34.8	> 100	64.2	73.8			
COc1ccc2cc(C(=O)O)ccc2c1OC	> 100	> 100	> 100	> 100	> 100	> 100	> 100	> 100	> 100		> 100	> 100			
[O-][n+]1ccccc1S	> 100	56.4	4.09	> 100	> 100	9.13	> 100	13.1		> 100			2910	5.17	1930
C=C(C)[C@H]1C=C[C@@H](OC(=O)c2cccnc2)[C@@]23CO[C@@](C)([C@H](OC(=O)c4cccnc4)[C@@]4(OC(C)=O)C[C@H](C)[C@H](OCCC)[C@@H]4[C@H]2OC(C)=O)[C@H]13	> 15	> 15	> 15	> 15	> 15	> 15	> 15	> 15	> 15		> 15	> 15			
O=c1[nH]nc(Cc2ccccc2)n1/N=C\c1ccccc1		> 100	> 100	> 100	> 100	> 100	> 100	> 100	> 100	> 100	> 100	> 100			
Oc1ccc(N=C2CCC(=C(c3ccccc3)c3ccc(Nc4ccc(O)cc4)cc3)CC2)cc1	> 100			> 100	> 100	> 100	> 100		> 100	> 100	> 100	> 100			
C[n+]1c(-c2ccc(/C=N/NC(=O)C(=O)N/N=C/c3ccc(-c4cn5ccsc5[n+]4C)cc3)cc2)cn2ccsc21	> 100	> 100	> 100	> 100	> 100		> 100	> 100	> 100	> 100	> 100	> 100			
